From patent publication US8871934B2, “Fluorene compound and pharmaceutical use thereof” (Japan Tobacco Inc., priority 2008, dated 2014) come the findings set out here.

The target of the experiment is human PDHK2 (hPDHK2) (Homo sapiens (Human), UniProt Q15119). As to the kind of experiment: Inhibitory action of PDHK activity in vitro (kinase reaction, residual PDH activity measured). Format: biochemical.
[1] abbreviates: PDHK inhibitory activity, class symbol of IC50.
[2] abbreviates: read-out: PDHK inhibitory activity IC50.

Molecules are shown by their SMILES. Where two headings read alike, the source gives them in different places.

`OC1(C(F)(F)F)c2ccccc2-c2c(-c3cccnc3)cccc21` (stereo not shown) [compound 146]: the IC50 (as a rule, the midpoint of a concentration-inhibition curve) was 100 to 1000 nM under setting [1] and 213 nM under setting [2].
The like results for `O=C1CCCN1c1ccc2c(c1)C(O)(C(F)(F)F)c1ccccc1-2` (stereo not shown) [compound 147] were, in that order, > 1000 nM and 1730 nM.
On the same counts, the results for `OC1(C(F)(F)F)c2ccccc2-c2ccc(N3CCCCC3)cc21` (stereo not shown) [compound 148] are > 1000 nM and 8450 nM.
As for `OC1(C(F)(F)F)c2ccccc2-c2ccc(-c3ccccc3F)cc21` (stereo not shown) [compound 149], the IC50 runs as follows: under setting [1], > 1000 nM; under setting [2], 1220 nM.
On the same counts, the results for `OC1(C(F)(F)F)c2ccccc2-c2ccc(-c3ccccc3Cl)cc21` (stereo not shown) [compound 150] are > 1000 nM and 6840 nM.
The like results for `Cc1ccccc1-c1ccc2c(c1)C(O)(C(F)(F)F)c1ccccc1-2` (stereo not shown) [compound 151] were, in that order, > 1000 nM and 5210 nM.
The like results for `COC(=O)c1cccc(-c2ccc3c(c2)C(O)(C(F)(F)F)c2ccccc2-3)c1` (stereo not shown) [compound 154] were, in that order, 100 to 1000 nM and 309 nM.
Consider `O=C(O)c1cccc(-c2ccc3c(c2)C(O)(C(F)(F)F)c2ccccc2-3)c1` (stereo not shown) [compound 155], for which the IC50 runs as follows: under setting [1], 100 to 1000 nM; under setting [2], 805 nM.
On the same counts, the results for `NC(=O)c1cccc(-c2ccc3c(c2)C(O)(C(F)(F)F)c2ccccc2-3)c1` (stereo not shown) [compound 156] are 100 to 1000 nM and 464 nM.
The like results for `CNC(=O)c1cccc(-c2ccc3c(c2)C(O)(C(F)(F)F)c2ccccc2-3)c1` (stereo not shown) [compound 157] were, in that order, 100 to 1000 nM and 358 nM.
Regarding `CN(C)C(=O)c1cccc(-c2ccc3c(c2)C(O)(C(F)(F)F)c2ccccc2-3)c1` (stereo not shown) [compound 158], the IC50 runs as follows: under setting [1], 100 to 1000 nM; under setting [2], 221 nM.
On the same counts, the results for `OC1(C(F)(F)F)c2ccccc2-c2c(Cl)cc(-c3ccccc3)cc21` (stereo not shown) [compound 159] are 100 to 1000 nM and 318 nM.
Regarding `OC1(C(F)(F)F)c2ccccc2-c2ccc(N3CCCC3)cc21` (stereo not shown) [compound 160], the IC50 is > 1000 nM under setting [1] and 2540 nM under setting [2].
The like results for `OC1(C(F)(F)F)c2ccccc2-c2ccc(N3CCOCC3)cc21` (stereo not shown) [compound 161] were, in that order, > 1000 nM and 2110 nM.
As to `CN1CCN(c2ccc3c(c2)C(O)(C(F)(F)F)c2ccccc2-3)CC1` (stereo not shown) [compound 162], the IC50 is > 1000 nM under setting [1] and 2890 nM under setting [2].
On the same counts, the results for `CC(C)(C)OC(=O)N1CCN(c2ccc3c(c2)C(O)(C(F)(F)F)c2ccccc2-3)CC1` (stereo not shown) [compound 163] are 100 to 1000 nM and 232 nM.
The like results for `OC1(C(F)(F)F)c2ccccc2-c2ccc(N3CCNCC3)cc21` (stereo not shown) [compound 164] were, in that order, > 1000 nM and 2750 nM.
On the same counts, the results for `CC(=O)N1CCN(c2ccc3c(c2)C(O)(C(F)(F)F)c2ccccc2-3)CC1` (stereo not shown) [compound 165] are 100 to 1000 nM and 957 nM.
`OC1(C(F)(F)F)c2ccccc2-c2ccc(Nc3ccccc3)cc21` (stereo not shown) [compound 166]: the IC50 under setting [1] is > 1000 nM and the IC50 under setting [2] is 5900 nM.
On the same counts, the results for `COC(=O)C1CCCN1C(=O)c1ccc2c(c1)C(O)(C(F)(F)F)c1ccccc1-2` (stereo not shown) [compound 167] are > 1000 nM and 1950 nM.
On the same counts, the results for `O=C(O)C1CCCN1C(=O)c1ccc2c(c1)C(O)(C(F)(F)F)c1ccccc1-2` (stereo not shown) [compound 168] are > 1000 nM and > 10000 nM.
On the same counts, the results for `OC1(C(F)(F)F)c2ccccc2-c2ccc(C3CCCCC3)cc21` (stereo not shown) [compound 169] are > 1000 nM and 7360 nM.
With `COc1ccccc1-c1ccc2c(c1)C(O)(C(F)(F)F)c1ccccc1-2` (stereo not shown) [compound 170], the IC50 under setting [1] is > 1000 nM and the IC50 under setting [2] amounted to 6740 nM.
Regarding `OC1(C(F)(F)F)c2ccccc2-c2ccc(-c3ccc(F)cc3)cc21` (stereo not shown) [compound 171], the IC50 under setting [1] lay within 100 to 1000 nM and the half-inhibitory concentration (IC50) under setting [2] was 951 nM.
The like results for `COc1ccc(-c2ccc3c(c2)C(O)(C(F)(F)F)c2ccccc2-3)cc1` (stereo not shown) [compound 172] were, in that order, 100 to 1000 nM and 779 nM.
As to `CCOC(=O)c1ccccc1-c1ccc2c(c1)C(O)(C(F)(F)F)c1ccccc1-2` (stereo not shown) [compound 173], the IC50 runs as follows: under setting [1], > 1000 nM; under setting [2], > 10000 nM.
For `NC(=O)c1cc(C(=O)N2CCC2)cc2c1-c1ccccc1C2(O)C(F)(F)F` (stereo not shown) [compound 174], the IC50 is < 100 nM under setting [1] and 66 nM under setting [2].
For `CCOC(=O)c1ccc(-c2ccc3c(c2)C(O)(C(F)(F)F)c2ccccc2-3)cc1` (stereo not shown) [compound 175], the IC50 is, setting by setting: under setting [1], 100 to 1000 nM; under setting [2], 517 nM.
The like results for `NC(=O)C1CCCN1C(=O)c1ccc2c(c1)C(O)(C(F)(F)F)c1ccccc1-2` (stereo not shown) [compound 176] were, in that order, > 1000 nM and 8010 nM.
The like results for `CNC(=O)C1CCCN1C(=O)c1ccc2c(c1)C(O)(C(F)(F)F)c1ccccc1-2` (stereo not shown) [compound 177] were, in that order, > 1000 nM and 9190 nM.
The like results for `CN(C)C(=O)C1CCCN1C(=O)c1ccc2c(c1)C(O)(C(F)(F)F)c1ccccc1-2` (stereo not shown) [compound 178] were, in that order, > 1000 nM and > 10000 nM.
As for `OC1(C(F)(F)F)c2ccccc2-c2ccc(-c3ccc(Cl)cc3)cc21` (stereo not shown) [compound 179], the IC50 is, setting by setting: under setting [1], > 1000 nM; under setting [2], 1340 nM.
The like results for `O=C(O)c1ccccc1-c1ccc2c(c1)C(O)(C(F)(F)F)c1ccccc1-2` (stereo not shown) [compound 180] were, in that order, > 1000 nM and > 10000 nM.
With `Cc1ccc(-c2ccc3c(c2)C(O)(C(F)(F)F)c2ccccc2-3)cc1` (stereo not shown) [compound 181], the IC50 was > 1000 nM under setting [1] and 1510 nM under setting [2].
On to `NC(=O)c1ccccc1-c1ccc2c(c1)C(O)(C(F)(F)F)c1ccccc1-2` (stereo not shown) [compound 182], for which the IC50 under setting [1] is > 1000 nM and the IC50 under setting [2] was > 10000 nM.
The like results for `CNC(=O)c1ccccc1-c1ccc2c(c1)C(O)(C(F)(F)F)c1ccccc1-2` (stereo not shown) [compound 183] were, in that order, > 1000 nM and > 10000 nM.
On the same counts, the results for `CN(C)C(=O)c1ccccc1-c1ccc2c(c1)C(O)(C(F)(F)F)c1ccccc1-2` (stereo not shown) [compound 184] are > 1000 nM and > 10000 nM.
`OC1(C(F)(F)F)c2ccccc2-c2c(Cl)cc(-c3ccncc3)cc21` (stereo not shown) [compound 185]: the IC50 runs as follows: under setting [1], < 100 nM; under setting [2], 53 nM.
Regarding `CN(c1ccccc1)c1ccc2c(c1)C(O)(C(F)(F)F)c1ccccc1-2` (stereo not shown) [compound 186], the IC50 reads like this: under setting [1], > 1000 nM; under setting [2], 5910 nM.
Regarding `OC1(C(F)(F)F)c2ccccc2-c2ccc(Oc3ccccc3)cc21` (stereo not shown) [compound 187], the IC50 by setting is: under setting [1], > 1000 nM; under setting [2], 2480 nM.
The like results for `O=C(O)c1ccc(-c2ccc3c(c2)C(O)(C(F)(F)F)c2ccccc2-3)cc1` (stereo not shown) [compound 188] were, in that order, 100 to 1000 nM and 383 nM.
On the same counts, the results for `OCc1ccccc1-c1ccc2c(c1)C(O)(C(F)(F)F)c1ccccc1-2` (stereo not shown) [compound 189] are > 1000 nM and 6000 nM.
Regarding `CC(=O)Nc1ccccc1-c1ccc2c(c1)C(O)(C(F)(F)F)c1ccccc1-2` (stereo not shown) [compound 190], the IC50 under setting [1] is > 1000 nM and the IC50 under setting [2] is > 10000 nM.
The like results for `CNC(=O)c1ccc(-c2ccc3c(c2)C(O)(C(F)(F)F)c2ccccc2-3)cc1` (stereo not shown) [compound 191] were, in that order, 100 to 1000 nM and 216 nM.
The like results for `CN(C)C(=O)c1ccc(-c2ccc3c(c2)C(O)(C(F)(F)F)c2ccccc2-3)cc1` (stereo not shown) [compound 192] were, in that order, 100 to 1000 nM and 182 nM.
The like results for `Nc1ccc(-c2ccc3c(c2)C(O)(C(F)(F)F)c2ccccc2-3)cc1` (stereo not shown) [compound 193] were, in that order, 100 to 1000 nM and 560 nM.
Turning to `OCc1ccc(-c2ccc3c(c2)C(O)(C(F)(F)F)c2ccccc2-3)cc1` (stereo not shown) [compound 194], the IC50 under setting [1] is 100 to 1000 nM and the IC50 under setting [2] was determined as 368 nM.
The like results for `O=C(c1ccc2c(c1)C(O)(C(F)(F)F)c1ccccc1-2)N1CCCC1CO` (stereo not shown) [compound 195] were, in that order, > 1000 nM and 5480 nM.
The like results for `Cc1cnc2c(c1)C(O)(C(F)(F)F)c1ccccc1-2` (stereo not shown) [compound 196] were, in that order, 100 to 1000 nM and 475 nM.
For the compound `CC(=O)Nc1ccc(-c2ccc3c(c2)C(O)(C(F)(F)F)c2ccccc2-3)cc1` (stereo not shown) [compound 197], the IC50 reads like this: under setting [1], 100 to 1000 nM; under setting [2], 298 nM.
On the same counts, the results for `Cc1cc(-c2ccc3c(c2)C(O)(C(F)(F)F)c2ccccc2-3)ccn1` (stereo not shown) [compound 198] are 100 to 1000 nM and 126 nM.
As to `NC(=O)c1ccc(-c2ccc3c(c2)C(O)(C(F)(F)F)c2ccccc2-3)cc1` (stereo not shown) [compound 199], the IC50 under setting [1] lay in the range of 100 to 1000 nM and the IC50 under setting [2] was determined as 182 nM.
On the same counts, the results for `CCN(CC)C(=O)C1CN(C(=O)c2ccc3c(c2)C(O)(C(F)(F)F)c2ccccc2-3)C1` (stereo not shown) [compound 200] are 100 to 1000 nM and 236 nM.
On the same counts, the results for `O=C(c1ccc2c(c1)C(O)(C(F)(F)F)c1ccccc1-2)N1CC(C(=O)N2CCCC2)C1` (stereo not shown) [compound 201] are 100 to 1000 nM and 162 nM.
The like results for `O=C(c1ccc2c(c1)C(O)(C(F)(F)F)c1ccccc1-2)N1CC(C(=O)N2CCCCC2)C1` (stereo not shown) [compound 202] were, in that order, 100 to 1000 nM and 247 nM.
As for `O=C(c1ccc2c(c1)C(O)(C(F)(F)F)c1ccccc1-2)N1CC(C(=O)N2CCC(O)CC2)C1` (stereo not shown) [compound 203], the IC50 under setting [1] was 100 to 1000 nM and the IC50 under setting [2] amounted to 423 nM.
The like results for `Cc1ccncc1-c1cccc2c1-c1ccccc1C2(O)C(F)(F)F` (stereo not shown) [compound 204] were, in that order, > 1000 nM and > 10000 nM.
On the same counts, the results for `Oc1ccc(-c2ccc3c(c2)C(O)(C(F)(F)F)c2ccccc2-3)cc1` (stereo not shown) [compound 205] are 100 to 1000 nM and 707 nM.
On the same counts, the results for `COC(=O)C1CCN(C(=O)c2ccc3c(c2)C(O)(C(F)(F)F)c2ccccc2-3)C1` (stereo not shown) [compound 206] are > 1000 nM and 2240 nM.
